Oligonucleotides are written 5' to 3', each unit as a sugar letter and its base; * is a phosphorothioate linkage, no mark a phosphodiester; rarer units and linkages stand in square brackets, end groups in braces. Plain capitals give the bases only. e = 2'-O-(2-methoxyethyl) (MOE); [5mC] = 5-methylcytosine
How the values were obtained:
[1] = test system: H3K9me2 along SERF1A, MYOD, GAPDH; assay: Specificity control ChIP-qPCR of H3K9me2 on SERF1A, MYOD and GAPDH in HEK293T cells; format: cell-based, human
Procedure: FIGS. 6A-6D show antisense oligonucleotides and their effects on chromatin. […] Uppercase, exonic nucleotide sequence. Lowercase, intronic sequences. Upstream highlight, binding site for ASO1. Downstream highlight, binding site for ASO2. Levels of H3K9me2 deposition along small EDRK-rich factor 1A (SERF1A, upstream of SMN2) (FIG. 6B), Myoblast Determination Protein (MYOD) (FIG. 6C), and Glyceraldehyde 3-phosphate dehydrogenase (GAPDH) (FIG. 6D), were assessed by ChIP-qPCR in HEK293T cells. Data represented as mean ± S.D. (n = 4, *p < 0.05, two-tailed Student’s t test).
Approximately 2×10^6 HEK293T cells per sample were treated for 10 min in 1% (v/v) formaldehyde at room temperature to crosslink protein-DNA complexes. Crosslinking was stopped with glycine at a final concentration of 125 mM. Cells were washed twice with cold PBS and swelled on ice for 10 min in 25 mM HEPES pH 8, 1.5 mM MgCl2, 10 mM KCl, 0.1% NP-40, 1 mM DTT and 1× protease inhibitor cocktail set III (Calbiochem). Following Dounce homogenization, the nuclei were collected and resuspended in 1 ml sonication buffer (50 mM HEPES pH 8, 140 mM NaCl, 1 mM EDTA, 0.1% sodium deoxycholate, 0.1% SDS and 1× protease inhibitor cocktail). […] Immunoprecipitated DNA (1.5 µl) and serial dilutions of the 10% input DNA (1:4, 1:20, 1: 100, and 1:500) were analyzed by SYBR-Green real-time qPCR.

[2] = test system: H3K9me2 along the SMN2 gene; assay: ChIP-qPCR of H3K9me2 distribution along the SMN2 gene in HEK293T cells; format: cell-based, human; details: HEK293T; ASO transfection or 10 mM VPA
Procedure: (§3) H3K9me2 (FIG. 2B), total RNAPII (FIG. 2C), P-Ser5 RNAPII (FIG. 2D), and P-Ser2 RNAPII (FIG. 2E) distribution along the SMN2 gene, assessed by ChIP-qPCR in HEK293T cells transfected with the scramble oligo (CTRL) or ASO1 and treated with 10 mM VPA. Four independent immunoprecipitation replicates were conducted per experiment. Data are represented as mean ± S.D. (n = 4, *p < 0.05, two-tailed Student’s t test).
(§4) Total distribution of H3K9me2 (FIG. 3C), total RNAPII (FIG. 3D), P-Ser5 RNAPII (FIG. 3E), and P-Ser2 RNAPII (FIG. 3F) along the SMN2 gene is shown. This distribution was assessed by ChIP-qPCR in HEK293T cells transfected with the scramble oligo (CTRL) or ASO2 and treated with 10 mM VPA. Four independent immunoprecipitation replicates were conducted per experiment. Data are represented as mean ± S.D. (n = 4, *p < 0.05, two-tailed Student’s t test).
Approximately 2×10^6 HEK293T cells per sample were treated for 10 min in 1% (v/v) formaldehyde at room temperature to crosslink protein-DNA complexes. Crosslinking was stopped with glycine at a final concentration of 125 mM. Cells were washed twice with cold PBS and swelled on ice for 10 min in 25 mM HEPES pH 8, 1.5 mM MgCl2, 10 mM KCl, 0.1% NP-40, 1 mM DTT and 1× protease inhibitor cocktail set III (Calbiochem). Following Dounce homogenization, the nuclei were collected and resuspended in 1 ml sonication buffer (50 mM HEPES pH 8, 140 mM NaCl, 1 mM EDTA, 0.1% sodium deoxycholate, 0.1% SDS and 1× protease inhibitor cocktail). DNA was sonicated in an ultrasonic bath (Bioruptor Diagenode) to an average length of 200-500 bp. After addition of 1% (v/v) Triton X-100, samples were centrifuged at 15,000 ×g. Supernatants were immunoprecipitated O/N with 40 µl of pre-coated anti-IgG magnetic beads (Dynabeads M-280, Invitrogen) previously incubated with the antibody of interest for 6 hr at 4° C. The antibodies used were: rabbit anti-H3 (2 µg, Abcam ab1791), mouse anti-H3K9me2 (4 µg, Abcam ab1220), rabbit anti H3K9me3 (4 µg, Abcam ab8898), rabbit anti H3K9Ac (2 µg, Abcam ab4441), rabbit anti Rpb1 NTD (2 µg, Cell Signaling, D8L4Y), rabbit Phospho-Rpb1 CTD Ser2 (2 µg, Cell Signaling, E1Z3G), rabbit Phospho-Rpb1 CTD Ser5 (2 µg, Cell Signaling, D9N5I). Control immunoprecipitations were performed with rabbit IgG (1 µg, Abcam ab171870). […] Immunoprecipitated DNA (1.5 µl) and serial dilutions of the 10% input DNA (1:4, 1:20, 1: 100, and 1:500) were analyzed by SYBR-Green real-time qPCR.

[3] = test system: endogenous SMN2 E7 alternative splicing; assay: SMN2 E7 alternative splicing by radioactive RT-PCR in HEK293T cells; format: cell-based, human; details: for effect on SMN2 E7 inclusion, agent alone: 25 nM ASO, 3 µM TSA 24 hr, 3 µM CPT; for effect on SMN2 E7 inclusion, agent alone / effect of the drug on ASO1's effect on E7 inclusion: 25 µM 5-AZA 48 hr; for effect of the drug on ASO1's effect on E7 inclusion: HEK293T transfected with 25 nM ASO1, increasing doses of TSA 24 hr
Procedure: Alternative splicing was analyzed by radioactive RT-PCR followed by native polyacrylamide gel electrophoresis and autoradiography. Bars display means ± SD of percentage of the radioactivity in the FL band over the sum of radioactivity measurements in the FL and ΔE7 bands of at least three independent transfection experiments. A two-tailed Student’s t test was used to determine the significance between events. (FIG. 1A) HEK293T cells were co-transfected with the SMN2 minigene and expression vectors for WT^res and hC4 Pol II, followed by addition of α-amanitin. (FIG. 1B) Effect of camptothecin (CPT) on SMN2 E7 alternative splicing. HEK293T cells were incubated for at least 6 hours with 3 µM CPT. Combined effects on endogenous SMN2 E7 alternative splicing of transfection with 25 nM ASO1 and treatment with 3 µM TSA for 24 hr (FIG. 1C), 10 mM VPA for 24 hr (FIG. 1D), or 25 µM 5-AZA for 48 hr (FIG. 1E). Combined effects on HEK293T endogenous SMN2 E7 alternative splicing of transfection with 25 nM each of si-hnRNPA1 and si-hnRNPA2, and treatment with 3 µM TSA for 24 hr (FIG. 1F) or 10 mM VPA for 24 hr (FIG. 1G). […]
HEK293T, HeLa, and SMA type I homozygous and carrier fibroblasts 3813 and 3814 (Coriell Cell Repositories, Camden, New Jersey, United States) were grown in Dulbecco’s modified Eagle’s medium (DMEM) containing 4.5 g of glucose and 10% fetal bovine serum (Gibco) at 37° C. Cells were plated at a density of 2×10^5 cells per well in 12-well plates 24 hr before transfection. siRNA (25 nM), plasmid (500 ng), or ASO (25 nM) transfections were performed 24 hr after cells were plated, using 3 µl of Lipofectamine 2000 (Thermo Fisher Scientific) per well in 12-well plates. 24-48 h later, cells were treated with Trichostatin A (Sigma, T8552), Valproic Acid (Sigma, P4543), 5-Azacytidine (Sigma, A2385) or vehicle for the indicated time, and harvested for downstream procedures. […]

[4] = test system: RNAPII (total, P-Ser5, P-Ser2) along the SMN2 gene; assay: ChIP-qPCR of RNAPII distribution along the SMN2 gene in HEK293T cells; format: cell-based, human; details: ASO transfection vs scramble
Procedure: as §3, §4
Approximately 2×10^6 HEK293T cells per sample were treated for 10 min in 1% (v/v) formaldehyde at room temperature to crosslink protein-DNA complexes. Crosslinking was stopped with glycine at a final concentration of 125 mM. Cells were washed twice with cold PBS and swelled on ice for 10 min in 25 mM HEPES pH 8, 1.5 mM MgCl2, 10 mM KCl, 0.1% NP-40, 1 mM DTT and 1× protease inhibitor cocktail set III (Calbiochem). Following Dounce homogenization, the nuclei were collected and resuspended in 1 ml sonication buffer (50 mM HEPES pH 8, 140 mM NaCl, 1 mM EDTA, 0.1% sodium deoxycholate, 0.1% SDS and 1× protease inhibitor cocktail). DNA was sonicated in an ultrasonic bath (Bioruptor Diagenode) to an average length of 200-500 bp. After addition of 1% (v/v) Triton X-100, samples were centrifuged at 15,000 ×g. Supernatants were immunoprecipitated O/N with 40 µl of pre-coated anti-IgG magnetic beads (Dynabeads M-280, Invitrogen) previously incubated with the antibody of interest for 6 hr at 4° C. The antibodies used were: rabbit anti-H3 (2 µg, Abcam ab1791), mouse anti-H3K9me2 (4 µg, Abcam ab1220), rabbit anti H3K9me3 (4 µg, Abcam ab8898), rabbit anti H3K9Ac (2 µg, Abcam ab4441), rabbit anti Rpb1 NTD (2 µg, Cell Signaling, D8L4Y), rabbit Phospho-Rpb1 CTD Ser2 (2 µg, Cell Signaling, E1Z3G), rabbit Phospho-Rpb1 CTD Ser5 (2 µg, Cell Signaling, D9N5I). Control immunoprecipitations were performed with rabbit IgG (1 µg, Abcam ab171870). Beads were washed sequentially for 5 min each in Low-salt (20 mM Tris-HCl pH 8, 150 mM NaCl, 2 mM EDTA, 1% Triton X-100, 0.1% SDS), High-Salt (20 mM Tris-HCl pH 8, 500 mM NaCl, 2 mM EDTA, 1% Triton X-100, 0.1% SDS) and LiCl buffer (10 mM Tris pH 8.0, 1 mM EDTA, 250 mM LiCl, 1% NP-40, 1% Na-deoxycholate) for 5 min at 4° C. and then twice in TE 1x for 2 min at room temperature. Beads were eluted in 1% SDS and 100 mM NaHCO3 buffer for 15 min at 65° C. and crosslinking was reversed for 6 hr after addition of NaCl to a final concentration of 200 mM. Chromatin was precipitated with ethanol overnight, treated with 20 µg proteinase K, and purified by phenol-chloroform extraction. Immunoprecipitated DNA (1.5 µl) and serial dilutions of the 10% input DNA (1:4, 1:20, 1: 100, and 1:500) were analyzed by SYBR-Green real-time qPCR.

SMN2 E7 = details: saturating doses; cited from earlier work
[5] = test system: endogenous SMN2 E7 alternative splicing in SMA patient fibroblasts; assay: SMN2 E7 alternative splicing by radioactive RT-PCR in SMA patient fibroblasts (3813); format: cell-based, human; details: 10 nM ASO1 and 3 µM TSA 24 hr
Procedure: (§1) Combined effects on endogenous SMN2 E7 alternative splicing in transfected (FIG. 5A) HEK293T cells with 25 nM ASO1 and increasing doses of TSA for 24 hr, (FIG. 5B) HeLa cells with 10 nM ASO1 and 3 µM TSA for 24 hr., and (FIG. 5C) SMA patient fibroblasts (3813) with 10 nM ASO1 and 3 µM TSA for 24 hr. Bars display means ± SD of percentage of the radioactivity in the FL band over the sum of radioactivity measurements in the FL and ΔE7 bands of at least three independent transfection experiments. (FIG. 5D and FIG. 5E) Transcriptional activation was assessed by RT-qPCR. (FIG. 5F) HEK293T cells with 3 nM ASO1 and 10 mM VPA for 24 hr. Bars indicate mean transcriptional activation ± SD ratios between precursors of SMN2 and GAPDH as the control gene. Statistical significance was analyzed by two-tailed Student’s t-tests. P < 0.05 was considered statistically significant.
(§2) HEK293T, HeLa, and SMA type I homozygous and carrier fibroblasts 3813 and 3814 (Coriell Cell Repositories, Camden, New Jersey, United States) were grown in Dulbecco’s modified Eagle’s medium (DMEM) containing 4.5 g of glucose and 10% fetal bovine serum (Gibco) at 37° C. […]

SMN2 pre-mRNA = assay: Transcriptional activation by RT-qPCR of SMN2 pre-mRNA in HEK293T cells; format: cell-based, human; details: HDAC inhibitor alone
[6] = test system: endogenous SMN2 E7 alternative splicing in HeLa cells; assay: SMN2 E7 alternative splicing by radioactive RT-PCR in HeLa cells; format: cell-based, human; details: 10 nM ASO1 and 3 µM TSA 24 hr
Procedure: as §1, §2

## ASO2: 5′-AAAGTATGTTTCTTCCACAC-3′ 2′-O-methoxyethyl phosphorothioate oligonucleotide; target in SMN2 intron 7 downstream of the ASO1 site (antisense eA*eA*eA*eG*eT*eA*eT*eG*eT*eT*eT*e[5mC]*eT*eT*e[5mC]*e[5mC]*eA*e[5mC]*eA*e[5mC])
[1]
  H3K9 dimethylation in control genes (same TAD: SERF1A; outside TAD: MYOD, GAPDH): neither ASO1 nor ASO2 promoted H3K9 dimethylation
[2]
  H3K9me2 marks along the SMN2 gene: promoted H3K9 methylation
[3]; HEK293T, 25 nM ASO2 in combination with 3 µM CPT 24 hr
  inhibition of SMN2 E7 inclusion, ASO2 combined with CPT: stronger
[3]; HEK293T
  effect on SMN2 E7 inclusion, agent alone: inhibited SMN2 E7 inclusion as efficiently as the elongation inhibitor CPT
[4]
  P-Ser2 RNAPII density: higher
  P-Ser5 RNAPII density: higher
  total RNAPII density: higher

## Nc1ncn([C@@H]2O[C@H](CO)[C@@H](O)[C@H]2O)c(=O)n1 [5-AZA, 5-aza cytidine]
[3]
  effect of the drug on ASO1's effect on E7 inclusion: enhanced the effects of ASO1 as effectively as the HDAC inhibitors
[3]; HEK293T
  effect on SMN2 E7 inclusion, agent alone: no effect per se on E7 inclusion

## nusinersen: TCACTTTCATAATGCTGG; 2′-O-(2-methoxyethyl) phosphorothioate-modified antisense-oligonucleotide drug targeting a splicing silencer in SMN2 intron 7 (all 2'-MOE, all phosphorothioate, methylation of C not given here)
SMN2 E7
  inclusion of SMN2 E7: nearly full inclusion of SMN2 E7

## CC[C@@]1(O)C(=O)OCc2c1cc1n(c2=O)Cc2cc3ccccc3nc2-1 [CPT, camptothecin]
[3]; HEK293T
  effect on SMN2 E7 inclusion, agent alone: promoted E7 skipping

## CC(/C=C/C(=O)NO)=C\[C@@H](C)C(=O)c1ccc(N(C)C)cc1 [TSA, trichostatin A]
[5]
  cooperative effect of TSA with ASO1 on E7 inclusion: reproducible
SMN2 pre-mRNA
  levels of SMN2 pre-mRNA (promoter-proximal amplicon): increased the levels of SMN2 pre-mRNA
[3]
  effect of the drug on ASO1's effect on E7 inclusion: dose-dependent
[3]; HEK293T
  effect on SMN2 E7 inclusion, agent alone: less potent than ASO1 in upregulating E7 inclusion
[3]; HEK293T, 25 nM each si-hnRNPA1 and si-hnRNPA2, no ASO1, 3 µM TSA or 10 mM VPA 24 hr
  effect of hnRNPA1/A2 depletion in promoting E7 inclusion upon HDAC inhibitor treatment: stronger
[6]
  cooperative effect of TSA with ASO1 on E7 inclusion: reproducible

— US20230302036A1, “COMPOSITIONS FOR TREATMENT OF SPINAL MUSCULAR ATROPHY” (priority 2020, published 2023)
